PubChem BioAssay AID248 (DTP/NCI, 2004)
Several values for one entry are separate records, joined by “and”; a condition that tells them apart may be missing. Equal values may be shown once. Inconclusive results and toxic doses are left out. Rule as the data show it: active = T/C of 150% or more; inactive = T/C below 125%. Square brackets hold non-standard residues; d marks the D form. Peptide text beside a SMILES is read from it. * marks the point of attachment. ξ: configuration not given here. Cbz = O=C(OCc1ccccc1)*; Boc = CC(C)(C)OC(=O)*; ξM = CSCCC(N)C(=O)O

System: L1210 leukemia ip in BDF1 mice, survival T/C
Assay: NCI In Vivo Anticancer Drug Screen. Data for tumor model L1210 Leukemia (intraperitoneal) in B6D2F1 (BDF1) mice
Conditions: endpoint: mean survival time, higher = longer survival
How it was run: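 Transplanted-tumor mice were given test agent; controls received vehicle only. Survival readings from the two groups were divided (treated over control).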

[1] = dose: 100.0 mg/kg/injection, schedule: Q04DX003 (ip), vehicle: saline with Tween-80
[2] = dose: 200.0 mg/kg/injection, schedule: Q04DX003 (ip), vehicle: saline with Tween-80
[3] = dose: 400.0 mg/kg/injection, schedule: Q04DX003 (ip), vehicle: saline with Tween-80
[4] = dose: 100.0 mg/kg/injection, schedule: Q01DX009 (ip), vehicle: saline with Tween-80
[5] = dose: 200.0 mg/kg/injection, schedule: Q01DX009 (ip), vehicle: saline with Tween-80
[6] = dose: 100.0 mg/kg/injection, schedule: Q01DX001 (ip), vehicle: carboxymethylcellulose (CMC)
[7] = dose: 200.0 mg/kg/injection, schedule: Q01DX001 (ip), vehicle: carboxymethylcellulose (CMC)
[8] = dose: 400.0 mg/kg/injection, schedule: Q01DX001 (ip), vehicle: carboxymethylcellulose (CMC)
[9] = dose: 100.0 mg/kg/injection, schedule: Q04DX003 (ip), vehicle: Klucel (hydroxypropylcellulose) (HPC)
[10] = dose: 100.0 mg/kg/injection, schedule: Q01DX009 (ip), vehicle: saline
[11] = dose: 200.0 mg/kg/injection, schedule: Q01DX009 (ip), vehicle: saline
[12] = dose: 400.0 mg/kg/injection, schedule: Q01DX009 (ip), vehicle: saline
[13] = dose: 100.0 mg/kg/injection, schedule: Q01DX001 (ip), vehicle: Klucel (hydroxypropylcellulose) (HPC)
[14] = dose: 200.0 mg/kg/injection, schedule: Q01DX001 (ip), vehicle: Klucel (hydroxypropylcellulose) (HPC)
[15] = dose: 100.0 mg/kg/injection, schedule: Q01DX009 (ip), vehicle: Klucel (hydroxypropylcellulose) (HPC)
[16] = dose: 200.0 mg/kg/injection, schedule: Q01DX009 (ip), vehicle: Klucel (hydroxypropylcellulose) (HPC)
[17] = dose: 400.0 mg/kg/injection, schedule: Q01DX009 (ip), vehicle: Klucel (hydroxypropylcellulose) (HPC)
[18] = dose: 100.0 mg/kg/injection, schedule: Q04DX003 (ip), vehicle: saline
[19] = dose: 400.0 mg/kg/injection, schedule: Q04DX003 (ip), vehicle: saline

Measured: T/C

COC(=O)C(CCSC)NC(=O)CNC(=O)CNC(=O)OCc1ccccc1 (stereo not drawn) (Cbz-Gly-Gly-[ξM]-OMe)
inactive: [1] 106 % of control | [2] 101 % of control | [3] 95 % of control

CCOC(=O)CCc1c(C(=O)OCC)[nH]c2ccc(Cl)cc12
inactive: dose: 100.0 mg/kg/injection, schedule: Q04DX002 (ip), vehicle: Klucel (hydroxypropylcellulose) (HPC) 96 % of control | dose: 200.0 mg/kg/injection, schedule: Q04DX002 (ip), vehicle: Klucel (hydroxypropylcellulose) (HPC) 100 % of control | dose: 400.0 mg/kg/injection, schedule: Q04DX002 (ip), vehicle: Klucel (hydroxypropylcellulose) (HPC) 96 % of control

O=C1CC2=CC3C=CC(N1)C2c1ccccc13 (stereo not drawn)
inactive: [1] 101 % of control | [2] 93 % of control | [3] 93 % of control

COc1ccc2nc3ccccc3c(NCCCN(C)C)c2c1
inactive: dose: 5.0 mg/kg/injection, schedule: Q01DX001 (ip), vehicle: saline 115 % of control | dose: 10.0 mg/kg/injection, schedule: Q01DX001 (ip), vehicle: saline 115 % of control | dose: 20.0 mg/kg/injection, schedule: Q01DX001 (ip), vehicle: saline 107 % of control | dose: 40.0 mg/kg/injection, schedule: Q01DX001 (ip), vehicle: saline 106 % of control

COC(=O)CNC(=O)C1CCCN1C(=O)C(Cc1c[nH]c2ccccc12)NC(=O)OC(C)(C)C (stereo not drawn) (Boc-Trp-Pro-Gly-OMe; configuration not given here)
inactive: [4] 88 % of control | [5] 100 % of control | dose: 400.0 mg/kg/injection, schedule: Q01DX009 (ip), vehicle: saline with Tween-80 100 % of control

Cc1cc(N=Nc2ccccc2C)ccc1N
inactive: dose: 3.0 mg/kg/injection, schedule: Q01DX009 (ip), vehicle: DMSO 97 % of control | dose: 6.0 mg/kg/injection, schedule: Q01DX009 (ip), vehicle: DMSO 90 % of control | dose: 12.0 mg/kg/injection, schedule: Q01DX009 (ip), vehicle: DMSO 98 % of control | dose: 12.5 mg/kg/injection, schedule: Q01DX009 (ip), vehicle: DMSO 95 % of control | dose: 12.5 mg/kg/injection, schedule: Q04DX003 (ip), vehicle: DMSO 100 % of control | dose: 25.0 mg/kg/injection, schedule: Q04DX003 (ip), vehicle: DMSO 98 % of control | dose: 50.0 mg/kg/injection, schedule: Q04DX003 (ip), vehicle: DMSO 96 % of control

COc1c(Br)cc(N=Cc2ccc(N(CCCl)CCCl)cc2C)cc1Br
inactive: [6] 98 % of control | [7] 107 % of control | [8] 110 % of control

CCOC(=O)C1(C(=O)OCC)C(C)CC2Nc3cc4c(cc3C(=O)N21)OCO4 (stereo not drawn)
inactive: dose: 25.0 mg/kg/injection, schedule: Q04DX003 (ip), vehicle: Klucel (hydroxypropylcellulose) (HPC) 94 % of control | dose: 50.0 mg/kg/injection, schedule: Q04DX003 (ip), vehicle: Klucel (hydroxypropylcellulose) (HPC) 101 % of control | [9] 97 % of control

CCOC(=O)c1ccc(=O)n(C)c1
inactive: [10] 102 % of control | [11] 96 % of control | [12] 98 % of control

CC1(C)CCCC2(C)C(=O)C3CCC2C31 (stereo not drawn)
inactive: [13] 98 % of control | [14] 91 % of control | dose: 400.0 mg/kg/injection, schedule: Q01DX001 (ip), vehicle: Klucel (hydroxypropylcellulose) (HPC) 91 % of control

CCCCCCCCCCC(=O)NC1CCC(CC2CCCCC2)CC1 (stereo not drawn)
inactive: dose: 100.0 mg/kg/injection, schedule: Q04DX003 (ip), vehicle: other 101 % of control | dose: 200.0 mg/kg/injection, schedule: Q04DX003 (ip), vehicle: other 103 % of control | dose: 400.0 mg/kg/injection, schedule: Q04DX003 (ip), vehicle: other 101 % of control

CCOc1ccccc1NC(=O)NCC(=O)N/N=C/c1ccc(O)c(OC)c1
inactive: [15] 95 % of control | [16] 90 % of control | [17] 91 % of control

CS(=O)(=O)OCCN(CCOS(C)(=O)=O)c1ccc(C=Nc2ccc(C(=O)O)cc2)c(Cl)c1
inactive: [9] 120 % of control | dose: 200.0 mg/kg/injection, schedule: Q04DX003 (ip), vehicle: Klucel (hydroxypropylcellulose) (HPC) 105 % of control | dose: 400.0 mg/kg/injection, schedule: Q04DX003 (ip), vehicle: Klucel (hydroxypropylcellulose) (HPC) 86 % of control

Nc1nc2ncc(C(=O)O)nc2c(=O)[nH]1
inactive: dose: 50.0 mg/kg/injection, schedule: Q04DX003 (ip), vehicle: saline 98 % of control | [18] 97 % of control and 104 % of control | [19] 105 % of control

CN(C)/C=C1\C(=O)Nc2c1c(=O)n(C)c(=O)n2C
inactive: dose: 50.0 mg/kg/injection, schedule: Q01DX009 (ip), vehicle: saline 93 % of control | [10] 90 % of control

Cc1cc(N(CCCl)CCCl)ccc1C=NC1CCCC1
inactive: [6] 102 % of control | [7] 105 % of control | [8] 118 % of control

CC(C)(C)N=O
inactive: [13] 103 % of control | [14] 114 % of control

CSc1cc(C)c(OC(=O)Nc2c(C)cccc2C)c(CO)c1
inactive: [1] 86 % of control | [2] 90 % of control

CN(C)C(=O)Nc1ccc(Cl)c(Cl)c1
inactive: [10] 94 % of control | [18] 103 % of control | [11] 102 % of control | dose: 200.0 mg/kg/injection, schedule: Q04DX003 (ip), vehicle: saline 102 % of control | [12] 93 % of control | [19] 96 % of control

COC(CC[P+](c1ccccc1)(c1ccccc1)c1ccccc1)(C(=O)c1ccccc1)c1ccccc1 (stereo not drawn)
inactive: dose: 15.0 mg/kg/injection, schedule: Q01DX001 (ip), vehicle: carboxymethylcellulose (CMC) 96 % of control | dose: 30.0 mg/kg/injection, schedule: Q01DX001 (ip), vehicle: carboxymethylcellulose (CMC) 90 % of control | dose: 60.0 mg/kg/injection, schedule: Q01DX001 (ip), vehicle: carboxymethylcellulose (CMC) 89 % of control

CC1(C)C2CCC(CN=C(N)CSS(=O)(=O)O)C1C2 (stereo not drawn)
inactive: dose: 3.13 mg/kg/injection, schedule: Q04DX002 (ip), vehicle: saline with Tween-80 91 % of control | dose: 6.25 mg/kg/injection, schedule: Q04DX002 (ip), vehicle: saline with Tween-80 100 % of control and 107 % of control | dose: 12.5 mg/kg/injection, schedule: Q04DX002 (ip), vehicle: saline with Tween-80 104 % of control | dose: 25.0 mg/kg/injection, schedule: Q04DX002 (ip), vehicle: saline with Tween-80 93 % of control

CCOC(=O)/C=C/C(=O)OCC
inactive: [15] 100 % of control | [16] 103 % of control | [17] 108 % of control

CCOC(=O)c1ccc(NC(=O)Oc2ccc(OC)cc2)cc1
inactive: [15] 96 % of control | [16] 100 % of control | [17] 98 % of control

CC(C)=CCC/C(C)=C/C=C1C(=O)NC(=S)NC1=O
inactive: dose: 50.0 mg/kg/injection, schedule: Q01DX009 (ip), vehicle: saline with Tween-80 117 % of control | [4] 103 % of control | [5] 103 % of control
